According to patent US20070276141A1, “Preparation of Pharmaceutical Salts of [1,4] - Bipiperidine” (priority 2003, published 2007):

Test: Relative stability of solid forms
Assay type: physicochemical
Settings: test conditions not given

Cc1ccc(S(=O)(=O)NC(=O)N2CCC(N3CCC(Oc4ccc(Cl)c(Cl)c4)CC3)CC2)cc1 [Hydrate Form A, N-[[4-(3,4-dichlorophenoxy)[1,4′-bipiperidin]-1′-yl]carbonyl]-4-methyl-benzenesulfonamide]
stability compared with other solid forms of the sodium salt: more stable than Hydrate Forms B and D and Solvated Form E
